Reference: patent US8765147B2, “Endophytic fungi from Pteromischum sp. plant, compounds and methods of use” (The Regents of the University of California, priority 2007, dated 2014)

How the values were obtained:
Aspergillus fumigatus = assay: Minimum inhibitory concentration (MIC), 24-well plate, potato dextrose broth; type: cell-based
Procedure: (§1) All plant pathogenic fungi used in the bioassay test system were obtained from Drs. Don Mathre and Nina Zidak of the MSU Department of Plant Sciences. All fungi were grown on potato dextrose agar (PDA) at 23° C. and only freshly transferred cultures (4-7 days old) were used in the fungal bioassay tests.
(§2) Assays were performed in sterile 24-well plates with each well containing 500 μl of potato dextrose broth. The plates were incubated from 48-288 hours at 25 C. The MIC was defined as the minimum concentration of compound resulting in no visible growth of the test organism. The compounds were dissolved in methanol which represented less than 0.5% total methanol in each test well. Several small plugs of agar 3×3×3 mm containing actively growing test fungi were then placed into each well with some wells serving as controls.

Botrytis cinerea = assay: as above; type: cell-based
Procedure: as §1, §2

Fusarium solani = assay: as above; type: cell-based
Procedure: as §1, §2

Geotrichum canididum = assay: as above; type: cell-based
Procedure: as §1, §2

Pythium ultimum = assay: as above; type: cell-based
Procedure: as §1, §2

Rhizoctonia solani = assay: as above; type: cell-based
Procedure: as §1, §2

Sclerotinia sclerotiorum = assay: as above; type: cell-based
Procedure: as §1, §2

Trichoderma virde = assay: as above; type: cell-based
Procedure: as §1, §2

[1] = system: IL-2 production by activated CD4+ T cells; assay: Inhibition of IL-2 production by activated CD4+ T cells (flow cytometry); type: cell-based; settings: mouse spleen cells activated with ConA, anti-CD3/CD28 for 4 hours
Procedure: Total spleen cells were isolated from C57/B 6 mice and then were preactivated with ConA (1 ug/mL, Sigma-Aldrich, St. Louis, Mo.) for 2 days. These cells were then treated for 4 hours with cross-linked Hamster anti-mouse CD3/CD28 (1 ug/mL, BD Bioscience) antibodies in the Bruff's Medium containing 5% fetal bovine serum and 1× brefeldin A. After the activation, cells were fixed and analyzed for IL-2 production in the activated CD4± T cells using APC-conjugated anti-mouse IL-2 and PE-conjugated anti-mouse CD4 antibodies by flow cytometry.

[2] = system: human peripheral blood mononuclear cells (PBMCs); assay: Toxicity to peripheral blood mononuclear cells (7-AAD / Annexin V flow cytometry); settings: 24 and 48 hours of culture, versus DMSO controls; cyclosporin result at or above Bug/ml
Procedure: The cells (PBMCs) were then stained with 7-AAD and Annexin V directly conjugated to FITC or PE and subjected to flow cytometry. The percentage of necrotic (7-AAD+/Annexin V+), apoptotic (7-AAD-/Annexin V+) and viable (7-AAD-/Annexin V−) cells were calculated using CellQuest software (BD Biosciences). […] Error bars represent standard deviations between triplicate treatment groups.
Blood was collected from healthy adult donors and peripheral blood mononuclear cells (PBMCs) were purified using Histopaque 1077 (Sigma Aldrich, St. Louis, Mo.) according to the manufacturer's instructions. […] Cells were washed twice with PBS followed by staining with Annexin V directly conjugated to PE or FITC and 7-AAD using the Annexin V Apoptosis Detection Kit I (BD Biosciences, San Jose, Calif.) as per the manufacturer's instructions. Cells were then subjected to flow cytometry on a FACS Calibur equipped with an HTS loader (BD Biosciences, San Jose, Calif.). The staining allowed for differentiation among viable, necrotic and apoptotic cells. The studies were repeated at least three times and the variation between the dead cells detected was recorded as a function of concentration over 24 and 48 hour test periods.

With “cyclic lipopeptide with a molecular mass of 1127.7 produced by C. dematium fungus CR-12; contains Val-Ile-Ser-Ile [Colutellin A, colutellin A]” the MIC (Aspergillus fumigatus; after 48 h) was 2.4 µg/mL, the MIC (Aspergillus fumigatus; after 144 h) was >100 µg/mL and the MIC (Aspergillus fumigatus; after 288 h) was >100 µg/mL. The MIC (Botrytis cinerea; after 48 h) was 3.6 µg/mL, the MIC (Botrytis cinerea; after 144 h) was 10.8 µg/mL and the MIC (Botrytis cinerea; after 288 h) was 10.8 µg/mL. For the same substance, the MIC (Fusarium solani; after 48 h) was 7.2 µg/mL, the MIC (Fusarium solani; after 144 h) was >100 µg/mL and the MIC (Fusarium solani; after 288 h) was >100 µg/mL. For the same substance, the MIC (Geotrichum canididum; after 48 h) was 3.6 µg/mL, the MIC (Geotrichum canididum; after 144 h) was >100 µg/mL and the MIC (Geotrichum canididum; after 288 h) was >100 µg/mL. The MIC (Pythium ultimum; after 48 h) was >100 µg/mL, the MIC (Pythium ultimum; after 144 h) was >100 µg/mL and the MIC (Pythium ultimum; after 288 h) was >100 µg/mL. The MIC (Rhizoctonia solani; after 48 h) was >100 µg/mL, the MIC (Rhizoctonia solani; after 144 h) was >100 µg/mL and the MIC (Rhizoctonia solani; after 288 h) was >100 µg/mL. The MIC (Sclerotinia sclerotiorum; after 48 h) was 3.6 µg/mL, the MIC (Sclerotinia sclerotiorum; after 144 h) was 10.8 µg/mL and the MIC (Sclerotinia sclerotiorum; after 288 h) was 32.4 µg/mL. The MIC (Trichoderma virde; after 48 h) was >100 µg/mL, the MIC (Trichoderma virde; after 144 h) was >100 µg/mL and the MIC (Trichoderma virde; after 288 h) was >100 µg/mL. For the same substance, the IC50 [1] was 167 nM and the “Cytotoxicity on human PBMCs (necrosis and apoptosis)” value [2] was “did not induce significant cell death above the DMSO controls at any concentration tested”.
